Converted amounts (≈) assume the structure as drawn. Structures can show the parent of a compound that is named as a salt. Where two headings read alike, the source gives them in different places.
How the values were obtained:
Format in all cases: cell-based
[1] = tested on: S. aureus ATCC 49951 (NB01006); assay: MIC by broth microdilution, S. aureus NB01006; details: Staphylococcus aureus, ATCC49951, CAMHB, 35° C., 20 hours, read-out: Antibacterial activity (MIC) NB01006
Summary of the method: (§1)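 CLSI broth microdilution in cation-adjusted Mueller-Hinton broth, inoculum about 5×10^5 CFU/mL from overnight MHA cultures. Two-fold compound dilutions in 1% final DMSO; plates incubated 20 h at 35° C in ambient air. MIC (μg/mL) was the lowest concentration preventing visible growth, checked by OD600 and visual inspection.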

[2] = tested on: S. aureus NB01006-AVR005, gyrA (S84L), grlA (580F) and grlB (E471K); assay: microbe, parasite or virus in culture; details: Staphylococcus aureus, 20 h, read-out: Antibacterial activity (MIC) NB01006-AVR005
Summary of the method: as §1

[3] = tested on: S. aureus NB01080 fluoroquinolone-resistant clinical isolate; assay: MIC by broth microdilution, S. aureus NB01080; details: Staphylococcus aureus, CAMHB, 35° C., 20 hours, read-out: Antibacterial activity (MIC) NB01080
Summary of the method: as §1

[4] = tested on: E. faecalis ATCC 29212 (NB04001); assay: MIC by broth microdilution, E. faecalis NB04001; details: Enterococcus faecalis, ATCC29212, CAMHB, 35° C., 20 hours, read-out: Antibacterial activity (MIC) NB04001
Summary of the method: as §1

[5] = tested on: S. pneumoniae ATCC 25922 (NB07001); assay: MIC by broth microdilution, S. pneumoniae NB07001; details: Streptococcus pneumoniae, read-out: Antibacterial activity (MIC) NB07001
Summary of the method: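 CLSI broth microdilution in CAMHB, inoculum ~5×10^5 CFU/mL, two-fold compound dilutions at 1% final DMSO. Plates incubated 20 h at 35°C in ambient air; MIC (μg/mL) is the lowest concentration preventing visible growth, confirmed by OD600.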

[6] = tested on: E. coli ATCC 25922 (NB27001); assay: MIC by broth microdilution, E. coli NB27001; details: Escherichia coli, ATCC25922, CAMHB, 35° C., 20 hours, read-out: Antibacterial activity (MIC) NB27001
Summary of the method: as §1

[7] = tested on: P. aeruginosa NB52019, wild-type PAO1 strain; assay: MIC by broth microdilution, P. aeruginosa NB52019; details: Pseudomonas aeruginosa, CAMHB, 35° C., 20 hours, read-out: Antibacterial activity (MIC) NB52019
Summary of the method: as §1

[8] = ATCC25922, S. pneumoniae, CAMHB supplemented with 5% lysed horse blood, 35° C., 20 hours

| Structure (SMILES) | MIC [1] [µg/mL] | MIC [2] [µg/mL] | MIC [3] [µg/mL] | MIC [4] [µg/mL] | MIC ([5]; ATCC25922, 20 h) [µg/mL] | MIC [6] [µg/mL] | MIC [7] [µg/mL] | MIC [5, 8] [µg/mL] |
| --- | --- | --- | --- | --- | --- | --- | --- | --- |
| NC1([C@@H]2CCN(c3c(F)cc4cc(C(=O)O)c(=O)n5c4c3OC[C@@H]5CF)C2)CC1 [Example 4, (R)-10-((R)-3-(1-aminocyclopropyl)pyrrolidin-1-yl)-9-fluoro-3-(fluoromethyl)-5-oxo-2,3-dihydro-5H-[1,4]oxazino[2,3,4-ij]quinoline-6-carboxylic acid] | < 1 | 1 to 32 (≈ 2.47 to 78.9 µM) | 1 to 32 (≈ 2.47 to 78.9 µM) | 1 to 32 (≈ 2.47 to 78.9 µM) | < 1 | 1 to 32 (≈ 2.47 to 78.9 µM) | > 32 | – |
| C[C@H]1COc2c(N3CC[C@@H](C4(N)CC4)C3)c(F)cc3cc(C#N)c(=O)n1c23.O=C(O)C(F)(F)F [Example 5, (S)-10-((R)-3-(1-aminocyclopropyl)pyrrolidin-1-yl)-9-fluoro-3-methyl-5-oxo-2,3-dihydro-5H-[1,4]oxazino[2,3,4-ij]quinoline-6-carbonitrile trifluoroacetate salt] | < 1 | < 1 | < 1 | < 1 | – | 1 to 32 | 1 to 32 | < 1 |
| C[C@H]1COc2c(N3CC4CC4(N)C3)c(F)cc3ccc(=O)n1c23 (stereo partly drawn) [Example 6.2, (3S)-10-(1-amino-3-azabicyclo[3.1.0]hexan-3-yl)-9-fluoro-3-methyl-2,3-dihydro-5H-[1,4]oxazino[2,3,4-ij]quinolin-5-one hydrochloride salt] | 1 to 32 | 1 to 32 | < 1 | 1 to 32 | 1 to 32 | 1 to 32 | > 32 | – |
| C[C@H]1COc2c(N3CC[C@@H](C4(N)CC4)C3)c(F)cc3c(CN)cc(=O)n1c23 [Example 7.9, (S)-10-((R)-3-(1-aminocyclopropyl)pyrrolidin-1-yl)-7-(aminomethyl)-9-fluoro-3-methyl-2,3-dihydro-5H-[1,4]oxazino[2,3,4-ij]quinolin-5-one] | < 1 | < 1 | 1 to 32 (≈ 2.68 to 85.9 µM) | < 1 | < 1 | < 1 | 1 to 32 (≈ 2.68 to 85.9 µM) | – |
| C[C@H]1COc2c(N3CC4CC4(N)C3)c(F)cc3c(CN)cc(=O)n1c23 (stereo partly drawn) [Example 7.10, (3S)-10-(1-amino-3-azabicyclo[3.1.0]hexan-3-yl)-7-(aminomethyl)-9-fluoro-3-methyl-2,3-dihydro-5H-[1,4]oxazino[2,3,4-ij]quinolin-5-one] | < 1 | < 1 | 1 to 32 (≈ 2.9 to 92.9 µM) | 1 to 32 (≈ 2.9 to 92.9 µM) | < 1 | < 1 | 1 to 32 (≈ 2.9 to 92.9 µM) | – |
| CC1Cc2c(N3CC[C@@H]([C@H](C)N)C3)c(F)cc3cc(C(=O)O)c(=O)n1c23 (stereo partly drawn) [Example 9.2] | < 1 | > 32 | 1 to 32 (≈ 2.78 to 89 µM) | < 1 | < 1 | 1 to 32 (≈ 2.78 to 89 µM) | > 32 | – |
| CC1Cc2c(N3CCNCC3)c(F)cc3cc(C(=O)O)c(=O)n1c23 (stereo not drawn) [Example 9.3, 8-fluoro-2-methyl-4-oxo-9-(piperazin-1-yl)-1,2-dihydro-4H-pyrrolo[3,2,1-ij]quinoline-5-carboxylic acid] | > 32 | > 32 | > 32 | > 32 | – | 1 to 32 (≈ 3.02 to 96.6 µM) | > 32 | > 32 |
| C[C@H]1CNc2c(N3CC[C@@H](C4(N)CC4)C3)c(F)cc3cc(C(=O)O)c(=O)n1c23.Cl [Example 10, (S)-10-((R)-3-(1-aminocyclopropyl)pyrrolidin-1-yl)-9-fluoro-3-methyl-5-oxo-2,3-dihydro-1H,5H-pyrido[1,2,3-de]quinoxaline-6-carboxylic acid hydrochloride salt] | 1 to 32 | > 32 | 1 to 32 | 1 to 32 | – | 1 to 32 | > 32 | 1 to 32 |
| C[C@H]1CSc2c(N3CC[C@@H](C4(N)CC4)C3)c(F)cc3cc(C(=O)O)c(=O)n1c23.Cl [Example 11, (S)-10-((R)-3-(1-aminocyclopropyl)pyrrolidin-1-yl)-9-fluoro-3-methyl-5-oxo-2,3-dihydro-5H-[1,4]thiazino[2,3,4-ij]quinoline-6-carboxylic acid hydrochloride salt] | < 1 | 1 to 32 | < 1 | < 1 | – | 1 to 32 | > 32 | < 1 |
| C[C@H]1COc2c(N3CC[C@@H](C4(N)CC4)C3)cc(F)c3cc(C(=O)O)c(=O)n1c23 [Example 12.1, (S)-10-((R)-3-(1-aminocyclopropyl)pyrrolidin-1-yl)-8-fluoro-3-methyl-5-oxo-2,3-dihydro-5H-[1,4]oxazino[2,3,4-ij]quinoline-6-carboxylic acid trifluoroacetate salt] | < 1 | < 1 | < 1 | < 1 | < 1 | < 1 | 1 to 32 | – |
| C[C@H](N)[C@@H]1CCN(c2cc(F)c3cc(C(=O)O)c(=O)n4c3c2OC[C@@H]4C)C1 [Example 12.2, (S)-10-((R)-3-((S)-1-aminoethyl)pyrrolidin-1-yl)-8-fluoro-3-methyl-5-oxo-2,3-dihydro-5H-[1,4]oxazino[2,3,4-ij]quinoline-6-carboxylic acid] | < 1 | 1 to 32 (≈ 2.66 to 85.2 µM) | 1 to 32 (≈ 2.66 to 85.2 µM) | < 1 | < 1 | 1 to 32 (≈ 2.66 to 85.2 µM) | 1 to 32 (≈ 2.66 to 85.2 µM) | – |
| C[C@H](N)[C@@H]1CCN(c2ccc3cc(C(=O)O)c(=O)n4c3c2OC[C@@H]4C)C1 [Example 12.4, (S)-10-((R)-3-((S)-1-aminoethyl)pyrrolidin-1-yl)-3-methyl-5-oxo-2,3-dihydro-5H-[1,4]oxazino[2,3,4-ij]quinoline-6-carboxylic acid] | < 1 | 1 to 32 (≈ 2.8 to 89.5 µM) | 1 to 32 (≈ 2.8 to 89.5 µM) | < 1 | < 1 | 1 to 32 (≈ 2.8 to 89.5 µM) | 1 to 32 (≈ 2.8 to 89.5 µM) | – |
| C[C@H]1COc2c(N3CCC(F)(CN)C3)ccc3cc(C(=O)O)c(=O)n1c23 (stereo partly drawn) [Example 12.5, (3S)-10-(3-(aminomethyl)-3-fluoropyrrolidin-1-yl)-3-methyl-5-oxo-2,3-dihydro-5H-[1,4]oxazino[2,3,4-ij]quinoline-6-carboxylic acid] | 1 to 32 (≈ 2.77 to 88.6 µM) | > 32 | 1 to 32 (≈ 2.77 to 88.6 µM) | 1 to 32 (≈ 2.77 to 88.6 µM) | 1 to 32 (≈ 2.77 to 88.6 µM) | 1 to 32 (≈ 2.77 to 88.6 µM) | > 32 | – |
| C[C@H]1COc2c(N3CC4CC4(N)C3)ccc3cc(C(=O)O)c(=O)n1c23 (stereo partly drawn) [Example 12.6, (3S)-10-(1-amino-3-azabicyclo[3.1.0]hexan-3-yl)-3-methyl-5-oxo-2,3-dihydro-5H-[1,4]oxazino[2,3,4-ij]quinoline-6-carboxylic acid] | 1 to 32 (≈ 2.93 to 93.7 µM) | > 32 | 1 to 32 (≈ 2.93 to 93.7 µM) | 1 to 32 (≈ 2.93 to 93.7 µM) | 1 to 32 (≈ 2.93 to 93.7 µM) | 1 to 32 (≈ 2.93 to 93.7 µM) | > 32 | – |
| C[C@H]1COc2c(N3CC[C@@H](C4(N)CC4)C3)c(F)c(F)c3cc(C(=O)O)c(=O)n1c23 [Example 13.1, (S)-10-((R)-3-(1-aminocyclopropyl)pyrrolidin-1-yl)-8,9-difluoro-3-methyl-5-oxo-2,3-dihydro-5H-[1,4]oxazino[2,3,4-ij]quinoline-6-carboxylic acid hydrochloride salt] | < 1 | < 1 | < 1 | < 1 | < 1 | < 1 | 1 to 32 | – |

From patent publication US20180318311A1, “TRICYCLIC 2-QUINOLINONES AS ANTIBACTERIALS” (priority 2017, published 2018)
